This experiment deals with P388 leukemia ip, CD2F1 mice, survival T/C. The experiment is described as follows: NCI In Vivo Anticancer Drug Screen. Data for tumor model P388 Leukemia (intraperitoneal) in CD2F1 (CDF1) mice. Conditions: endpoint: median survival time, higher = longer survival. Summed up: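 Mice carrying the transplanted tumor received test compound or vehicle. Survival was recorded in each group, and the value is the treated-group measurement divided by that of the vehicle-treated control group.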

Where [1] appears, read: dose: 50.0 mg/kg/injection, schedule: Q01DX005 (ip), vehicle: Klucel (hydroxypropylcellulose) (HPC).
[2] abbreviates: dose: 100.0 mg/kg/injection, schedule: Q01DX005 (ip), vehicle: Klucel (hydroxypropylcellulose) (HPC).
Where [3] appears, read: dose: 200.0 mg/kg/injection, schedule: Q01DX005 (ip), vehicle: Klucel (hydroxypropylcellulose) (HPC).
The mark [4] stands for this setting: dose: 25.0 mg/kg/injection, schedule: Q01DX001 (ip), vehicle: saline with Tween-80.
Setting [5] is: dose: 50.0 mg/kg/injection, schedule: Q01DX001 (ip), vehicle: saline with Tween-80.
The mark [6] stands for this setting: dose: 60.0 mg/kg/injection, schedule: Q01DX005 (ip), vehicle: saline with Tween-80.
Where [7] appears, read: dose: 120.0 mg/kg/injection, schedule: Q01DX005 (ip), vehicle: saline with Tween-80.
Setting [8] is: dose: 50.0 mg/kg/injection, schedule: Q01DX009 (ip), vehicle: saline with Tween-80.
Where [9] appears, read: dose: 100.0 mg/kg/injection, schedule: Q01DX009 (ip), vehicle: saline with Tween-80.
[10] abbreviates: dose: 200.0 mg/kg/injection, schedule: Q01DX009 (ip), vehicle: saline with Tween-80.
Setting [11] is: dose: 240.0 mg/kg/injection, schedule: Q01DX005 (ip), vehicle: saline with Tween-80.

The text below walks through data of PubChem BioAssay AID330 (DTP/NCI, 2004).

Each structure is given as a SMILES string. Where “and” joins values, the source holds several entries; their conditions need not be identical. Equal values may be shown once. Inconclusive results and toxic doses are left out.

Turning to `COC(=O)CC1C2(C)C3=C(C)C(c4ccoc4)CC3OC2C2OC(=O)C3(C)C=CC(=O)C1(C)C23` (stereo not given), the T/C (dose: 1.25 mg/kg/injection, schedule: Q01DX009 (ip), vehicle: Klucel (hydroxypropylcellulose) (HPC)) was 91 % of control; the T/C (dose: 2.5 mg/kg/injection, schedule: Q01DX009 (ip), vehicle: Klucel (hydroxypropylcellulose) (HPC)) was 105 % of control; the T/C (dose: 5.0 mg/kg/injection, schedule: Q01DX009 (ip), vehicle: Klucel (hydroxypropylcellulose) (HPC)) is 86 % of control; the T/C (dose: 10.0 mg/kg/injection, schedule: Q01DX009 (ip), vehicle: Klucel (hydroxypropylcellulose) (HPC)) is 86 % of control; the T/C (dose: 20.0 mg/kg/injection, schedule: Q01DX009 (ip), vehicle: Klucel (hydroxypropylcellulose) (HPC)) was 102 % of control.
In the case of `CNC(=O)c1ccccc1C(=O)c1ccccc1OC`, the T/C is 104 % of control under setting [1], 99 % of control under setting [2] and 97 % of control under setting [3].
Take `N#CC(C#N)=C1Cc2ccccc2C1`: the T/C was 109 % of control under setting [4] and 100 % of control under setting [5].
For `O=C(O)c1cc(-c2c(Cl)cccc2Cl)nc2cc3ccccc3cc12`, the T/C was 111 % of control (dose: 50.0 mg/kg/injection, schedule: Q01DX009 (ip), vehicle: Klucel (hydroxypropylcellulose) (HPC)); 106 % of control (dose: 100.0 mg/kg/injection, schedule: Q01DX009 (ip), vehicle: Klucel (hydroxypropylcellulose) (HPC)); 106 % of control (dose: 200.0 mg/kg/injection, schedule: Q01DX009 (ip), vehicle: Klucel (hydroxypropylcellulose) (HPC)).
`CCCCCCOc1cc(N)ccc1C(=O)O`: the T/C was 98 % of control (dose: 100.0 mg/kg/injection, schedule: Q04DX002 (ip), vehicle: saline with Tween-80); 100 % of control (dose: 200.0 mg/kg/injection, schedule: Q04DX002 (ip), vehicle: saline with Tween-80); 92 % of control (dose: 400.0 mg/kg/injection, schedule: Q04DX002 (ip), vehicle: saline with Tween-80).
On to `OCc1c(-c2ccc(Cl)cc2)c(-c2ccc(F)cc2)c2n1CCC2`, for which the T/C by setting is: under setting [1], 98 % of control; under setting [2], 100 % of control; under setting [3], 103 % of control.
With `O=C(O)C(Cc1ccccc1)NSc1ccccc1[N+](=O)[O-]` (stereo not given), the T/C is 98 % of control and 100 % of control (dose: 25.0 mg/kg/injection, schedule: Q01DX009 (ip), vehicle: distilled water + Tween-80); 107 % of control (dose: 50.0 mg/kg/injection, schedule: Q01DX009 (ip), vehicle: distilled water + Tween-80); 100 % of control and 116 % of control (dose: 100.0 mg/kg/injection, schedule: Q01DX009 (ip), vehicle: distilled water + Tween-80); 109 % of control (dose: 200.0 mg/kg/injection, schedule: Q01DX009 (ip), vehicle: distilled water + Tween-80).
Consider `CCCCCCCCOCCS(=O)(=O)O`, for which the T/C is 95 % of control under setting [6] and 92 % of control under setting [7].
As to `Cc1cc(C2C(=O)c3ccccc3C2=O)cc(C(C)(C)C)c1O`, the T/C reads like this: (dose: 100.0 mg/kg/injection, schedule: Q04DX002 (ip), vehicle: saline) 115 % of control; (dose: 200.0 mg/kg/injection, schedule: Q04DX002 (ip), vehicle: saline) 107 % of control; (dose: 400.0 mg/kg/injection, schedule: Q04DX002 (ip), vehicle: saline) 96 % of control.
Turning to `C=C(c1ccc(OC)cc1)c1ccc(OC)cc1`, the T/C reads like this: under setting [8], 103 % of control; under setting [9], 105 % of control; under setting [10], 102 % of control.
For `O=C(Nc1cccc(Cl)c1)Sc1c(Cl)c(Cl)c(Cl)c(Cl)c1Cl` the same measures were 106 % of control, 109 % of control and 112 % of control.
In the case of `O=C(Cc1ccccc1)NC1C(=O)N2c3c(CO)cccc3OCC12` (stereo not given), the T/C under setting [5] is 100 % of control; the T/C (dose: 100.0 mg/kg/injection, schedule: Q01DX001 (ip), vehicle: saline with Tween-80) is 90 % of control; the T/C (dose: 200.0 mg/kg/injection, schedule: Q01DX001 (ip), vehicle: saline with Tween-80) was 94 % of control.
For the molecule `CC1C[N+]2(CNC(=O)c3ccccc3O)CC(C)O[B-]2(c2ccccc2)O1` (stereo not given), the T/C is, setting by setting: under setting [1], 103 % of control; under setting [2], 100 % of control; under setting [3], 103 % of control.
For the molecule `NC(=S)c1ccc(N=Cc2ccccn2)cc1`, the T/C is 100 % of control (dose: 25.0 mg/kg/injection, schedule: Q01DX001 (ip), vehicle: Klucel (hydroxypropylcellulose) (HPC)); 100 % of control (dose: 50.0 mg/kg/injection, schedule: Q01DX001 (ip), vehicle: Klucel (hydroxypropylcellulose) (HPC)); 103 % of control and 106 % of control (dose: 100.0 mg/kg/injection, schedule: Q01DX001 (ip), vehicle: Klucel (hydroxypropylcellulose) (HPC)); 102 % of control (dose: 200.0 mg/kg/injection, schedule: Q01DX001 (ip), vehicle: Klucel (hydroxypropylcellulose) (HPC)); 105 % of control (dose: 400.0 mg/kg/injection, schedule: Q01DX001 (ip), vehicle: Klucel (hydroxypropylcellulose) (HPC)).
`COc1ccc(OC)c(N2C(=O)C(Cl)=C(Cl)C2=O)c1`: the T/C was 100 % of control (dose: 12.5 mg/kg/injection, schedule: Q01DX001 (ip), vehicle: saline with Tween-80); 100 % of control under setting [4]; 114 % of control under setting [5].
Take `C=C1C(=O)OC2/C=C(/COC(=O)CCCCC)CCC(OCC)C3=CC(OC3=O)C12` (stereo not given): the T/C (dose: 4.0 mg/kg/injection, schedule: Q01DX009 (ip), vehicle: Klucel (hydroxypropylcellulose) (HPC)) is 105 % of control; the T/C (dose: 8.0 mg/kg/injection, schedule: Q01DX009 (ip), vehicle: Klucel (hydroxypropylcellulose) (HPC)) was 105 % of control; the T/C (dose: 16.0 mg/kg/injection, schedule: Q01DX009 (ip), vehicle: Klucel (hydroxypropylcellulose) (HPC)) was 108 % of control; the T/C (dose: 32.0 mg/kg/injection, schedule: Q01DX009 (ip), vehicle: Klucel (hydroxypropylcellulose) (HPC)) was 123 % of control.
As to `C=C1C(=O)O[C@H]2C[C@H]3O[C@H]3[C@@H]12`, the T/C reads like this: (dose: 1.56 mg/kg/injection, schedule: Q01DX009 (ip), vehicle: water) 100 % of control; (dose: 3.13 mg/kg/injection, schedule: Q01DX009 (ip), vehicle: water) 99 % of control; (dose: 6.25 mg/kg/injection, schedule: Q01DX009 (ip), vehicle: water) 98 % of control; (dose: 12.5 mg/kg/injection, schedule: Q01DX009 (ip), vehicle: water) 101 % of control; (dose: 25.0 mg/kg/injection, schedule: Q01DX009 (ip), vehicle: water) 107 % of control.
Regarding `O=c1[nH]c2c([N+](=O)[O-])cc(Cl)cc2nc1/C=C(\O)c1ccc2ccccc2c1`, the T/C runs as follows: under setting [6], 98 % of control; under setting [7], 90 % of control; under setting [11], 99 % of control.
`CC1=CC2C3C(=O)NC(=O)C3C1(C)C1C3C(=O)NC(=O)C3C21` (stereo not given): the T/C was 100 % of control under setting [6], 100 % of control under setting [7] and 101 % of control under setting [11].
With `COc1nc(NC2OC(CO)C(O)C(O)C2O)c(C=O)c(=O)n1C` (stereo not given), the T/C is 93 % of control (dose: 60.0 mg/kg/injection, schedule: Q01DX005 (ip), vehicle: saline); 100 % of control (dose: 120.0 mg/kg/injection, schedule: Q01DX005 (ip), vehicle: saline); 99 % of control (dose: 240.0 mg/kg/injection, schedule: Q01DX005 (ip), vehicle: saline).
Turning to `CC(C)=CCC(C)/C(=N\[N+](C)(C)C)c1ccccc1` (stereo not given), the T/C (dose: 6.25 mg/kg/injection, schedule: Q01DX009 (ip), vehicle: saline) was 94 % of control; the T/C (dose: 12.5 mg/kg/injection, schedule: Q01DX009 (ip), vehicle: saline) is 99 % of control; the T/C (dose: 25.0 mg/kg/injection, schedule: Q01DX009 (ip), vehicle: saline) is 101 % of control and 116 % of control.
As to `CC1CCC2(OC1)OC1CC3C4CC=C5CC(O)CCC5(C)C4CCC3(C)C1C2C` (stereo not given), the T/C is 100 % of control under setting [1], 89 % of control under setting [2] and 86 % of control under setting [3].
For the molecule `O=C(CN1CC1)NCCCCCCCCNC(=O)CN1CC1`, the T/C (dose: 25.0 mg/kg/injection, schedule: Q04DX003 (ip), vehicle: saline with Tween-80) was 159 % of control; the T/C (dose: 33.0 mg/kg/injection, schedule: Q04DX003 (ip), vehicle: saline with Tween-80) was 200 % of control; the T/C (dose: 50.0 mg/kg/injection, schedule: Q04DX003 (ip), vehicle: saline with Tween-80) is 181 % of control and 209 % of control.
